Reference: ChEMBL document CHEMBL1201862, “PubChem BioAssay data set” (2004)
Where a name gives a salt, the structure may show the parent alone.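 Interpolation was linear, between the two tested concentrations surrounding the appropriate level; five concentrations were tested over 48 hours in 96-well plates. Here, GI50 denotes the concentration required for 50% inhibition of growth.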 The source made the active and inactive calls. Rule as the data show it: active = GI50 up to about 1.1 µM and inactive = higher.

How the values were obtained:
Test in all cases: inhibition of tumour cell growth, NCI panel, 48 h
ACHN = test system: ACHN
SK-MEL-5 = test system: SK-MEL-5
SR = test system: SR
NCI-H460 = test system: NCI-H460
786-0 = test system: 786-0
HCC 2998 = test system: HCC 2998
RXF 393 = test system: RXF 393
SF-539 = test system: SF-539
RPMI-8226 = test system: RPMI-8226
HCT-116 = test system: HCT-116
HOP-62 = test system: HOP-62
HT-29 = test system: HT-29
SK-MEL-28 = test system: SK-MEL-28
OVCAR-5 = test system: OVCAR-5
HL-60 = test system: HL-60
A549 = test system: A549
IGROV-1 = test system: IGROV-1
SK-MEL-2 = test system: SK-MEL-2
NCI-H522 = test system: NCI-H522

Measured: GI50

O=C(C=P(c1ccccc1)(c1ccccc1)c1ccccc1)c1ccc(-c2ccc(F)cc2F)cc1
inactive: ACHN 2.44 µM | SK-MEL-5 1.84 µM | SR 3.44 µM | NCI-H460 1.86 µM | 786-0 3.56 µM | HCC 2998 2.08 µM | RXF 393 2.64 µM | SF-539 2.88 µM | RPMI-8226 1.87 µM | HCT-116 2.87 µM | HOP-62 3.79 µM | HT-29 2.18 µM | SK-MEL-28 2.95 µM | OVCAR-5 2.96 µM | HL-60 2.43 µM | A549 2.73 µM

CCN1C(=O)C(=C/C=C/C=C2/N(C)c3ccccc3C2(C)C)C(=O)N(CC)C1=S
inactive: ACHN 53.6 µM | SK-MEL-5 > 10 µM | SR > 10 µM | IGROV-1 > 100 µM | NCI-H460 38.9 µM | SK-MEL-2 > 100 µM | 786-0 42.2 µM | RXF 393 39.6 µM | SF-539 78.3 µM | RPMI-8226 > 100 µM | HCT-116 > 100 µM | NCI-H522 > 100 µM | HOP-62 32.5 µM | HT-29 55.6 µM | OVCAR-5 > 100 µM | HL-60 > 100 µM | A549 > 100 µM

COc1ccccc1Cn1nc(OC)c2cc([N+](=O)[O-])ccc21
inactive: ACHN 31 µM | SK-MEL-5 > 53.7 µM | SR > 100 µM | IGROV-1 34.8 µM | NCI-H460 66.7 µM | SK-MEL-2 19.7 µM | 786-0 11.6 µM | HCC 2998 > 100 µM | RXF 393 1.88 µM | SF-539 13.8 µM | HCT-116 32.7 µM | NCI-H522 17.9 µM | HOP-62 4.48 µM | HT-29 > 100 µM | SK-MEL-28 > 91 µM | OVCAR-5 > 100 µM | HL-60 > 100 µM | A549 63.2 µM

CC1=C(/C=C/Cl)CC(Cl)C(C)(Cl)C1 (configuration not stated)
inactive: ACHN > 100 µM | SK-MEL-5 > 100 µM | SR > 100 µM | IGROV-1 > 100 µM | NCI-H460 > 100 µM | SK-MEL-2 > 100 µM | 786-0 > 100 µM | HCC 2998 > 100 µM | RXF 393 10.6 µM | SF-539 > 100 µM | HCT-116 > 100 µM | NCI-H522 91.2 µM | HT-29 55.8 µM | SK-MEL-28 > 100 µM | OVCAR-5 > 100 µM | HL-60 20.4 µM | A549 > 100 µM

CC(C)(CCC(C)(C)N1OC1c1ccccc1)N1OC1c1ccccc1 (configuration not stated)
inactive: ACHN 19.8 µM | SK-MEL-5 17.5 µM | SR 14.1 µM | NCI-H460 33 µM | SK-MEL-2 21.5 µM | 786-0 54.1 µM | HCC 2998 31.9 µM | SF-539 22.4 µM | RPMI-8226 28.9 µM | HCT-116 56.8 µM | NCI-H522 7.16 µM | HT-29 54.7 µM | SK-MEL-28 > 100 µM | HL-60 21 µM | A549 11.6 µM

COc1ccc2nc3n(c2c1)C(c1c(F)cccc1Cl)SC3 (configuration not stated)
inactive: ACHN > 100 µM | SK-MEL-5 > 100 µM | SR > 100 µM | IGROV-1 > 100 µM | NCI-H460 > 100 µM | SK-MEL-2 > 100 µM | 786-0 > 100 µM | HCC 2998 > 100 µM | RXF 393 > 100 µM | RPMI-8226 > 100 µM | HCT-116 > 100 µM | HOP-62 > 100 µM | SK-MEL-28 > 100 µM | OVCAR-5 > 100 µM | HL-60 9.31 µM | A549 > 100 µM

C(=N\Nc1nnc(-c2nnc(N/N=C/c3ccccc3)o2)o1)/c1ccccc1
inactive: ACHN > 10 µM | SK-MEL-5 > 10 µM | SR > 10 µM | IGROV-1 > 10 µM | NCI-H460 > 10 µM | 786-0 > 10 µM | HCC 2998 > 10 µM | RXF 393 > 10 µM | SF-539 > 10 µM | RPMI-8226 > 10 µM | HCT-116 > 10 µM | HOP-62 > 10 µM | HT-29 > 10 µM | SK-MEL-28 > 10 µM | OVCAR-5 > 10 µM | HL-60 > 10 µM | A549 > 10 µM

CC1CCOc2ccc(cc2)/C=N\c2ccc(cc2)CCc2ccc(cc2)/N=C\c2ccc(cc2)OCC1
inactive: ACHN > 100 µM | SK-MEL-5 > 100 µM | SR > 100 µM | IGROV-1 > 100 µM | NCI-H460 > 100 µM | SK-MEL-2 > 100 µM | 786-0 > 100 µM | HCC 2998 > 100 µM | RXF 393 35.6 µM | SF-539 > 100 µM | RPMI-8226 > 100 µM | HCT-116 > 100 µM | NCI-H522 > 100 µM | HOP-62 18.2 µM | HT-29 > 100 µM | SK-MEL-28 > 100 µM | OVCAR-5 > 100 µM | A549 > 100 µM

Nc1ncnc2c1ncn2C1OC(CO)C(O)C(O)C1O (configuration not stated)
inactive: ACHN > 100 µM | SK-MEL-5 > 100 µM | SR > 100 µM | IGROV-1 > 100 µM | NCI-H460 > 100 µM | SK-MEL-2 > 100 µM | 786-0 > 100 µM | HCC 2998 > 100 µM | SF-539 > 100 µM | RPMI-8226 > 100 µM | HCT-116 > 100 µM | NCI-H522 > 100 µM | HOP-62 > 100 µM | HT-29 > 100 µM | SK-MEL-28 > 100 µM | OVCAR-5 > 100 µM | HL-60 > 100 µM | A549 > 100 µM

CCCCCCCCCCCCCCCCOP(=O)([O-])OCC[N+](C)(C)C1CC(C)(C)N(O)C(C)(C)C1
inactive: ACHN > 100 µM | SK-MEL-5 > 100 µM | SR > 100 µM | NCI-H460 > 100 µM | SK-MEL-2 > 100 µM | 786-0 > 100 µM | HCC 2998 > 100 µM | RXF 393 > 100 µM | SF-539 > 100 µM | HCT-116 > 100 µM | NCI-H522 > 100 µM | HOP-62 > 100 µM | HT-29 > 100 µM | OVCAR-5 > 100 µM | A549 > 100 µM

Cc1ccc(S(=O)(=O)N/N=C2/C(=O)Nc3c(Cl)cc(Cl)cc32)cc1
inactive: ACHN > 100 µM | SK-MEL-5 59.6 µM | SR 34.4 µM | IGROV-1 32.2 µM | NCI-H460 44.2 µM | SK-MEL-2 > 100 µM | 786-0 > 100 µM | HCC 2998 75.9 µM | RXF 393 43.3 µM | SF-539 66.1 µM | HCT-116 44.3 µM | HOP-62 > 100 µM | HT-29 39.1 µM | SK-MEL-28 > 100 µM | OVCAR-5 > 100 µM | HL-60 36.9 µM | A549 67.5 µM

NC(CC(=O)Nc1cc(C(F)(F)F)ccc1Cl)=NO
inactive: ACHN > 100 µM | SK-MEL-5 > 100 µM | SR > 100 µM | IGROV-1 > 100 µM | NCI-H460 > 100 µM | SK-MEL-2 > 100 µM | 786-0 > 100 µM | RXF 393 > 100 µM | SF-539 > 100 µM | RPMI-8226 > 100 µM | HCT-116 > 100 µM | NCI-H522 > 100 µM | HOP-62 > 100 µM | HT-29 > 100 µM | SK-MEL-28 > 100 µM | OVCAR-5 > 100 µM | HL-60 > 100 µM | A549 > 100 µM

CN(C)CCC=C1c2ccccc2C=Cc2ccccc21 [CYCLOBENZAPRINE HYDROCHLORIDE]
inactive: ACHN 17.2 µM | SK-MEL-5 14 µM | SR 17.9 µM | IGROV-1 16.7 µM | NCI-H460 15.4 µM | SK-MEL-2 16.3 µM | 786-0 16.1 µM | HCC 2998 5.4 µM | RXF 393 14.5 µM | RPMI-8226 18.3 µM | HCT-116 15 µM | NCI-H522 17.9 µM | HOP-62 16.5 µM | HT-29 5.25 µM | SK-MEL-28 16.1 µM | OVCAR-5 15 µM | A549 20 µM

COc1cc(COC(=O)N[C@H](C(=O)O)C(C)(C)C)c([N+](=O)[O-])cc1OC
inactive: ACHN > 100 µM | SK-MEL-5 > 100 µM | SR > 100 µM | IGROV-1 > 100 µM | NCI-H460 > 100 µM | 786-0 > 100 µM | HCC 2998 > 100 µM | RXF 393 > 100 µM | SF-539 > 100 µM | RPMI-8226 > 100 µM | HCT-116 > 100 µM | HOP-62 > 100 µM | HT-29 > 100 µM | SK-MEL-28 > 100 µM | OVCAR-5 > 100 µM | HL-60 > 10 µM | A549 > 100 µM

O=c1cc(CSc2c(-c3ccccc3)c(=O)n(-c3ccccc3)c(=S)n2-c2ccccc2)[nH]c(=O)[nH]1
inactive: ACHN > 100 µM | SK-MEL-5 > 100 µM | SR > 100 µM | IGROV-1 > 100 µM | NCI-H460 > 100 µM | SK-MEL-2 > 100 µM | 786-0 > 100 µM | HCC 2998 > 100 µM | RXF 393 > 100 µM | SF-539 > 100 µM | RPMI-8226 > 100 µM | HCT-116 > 100 µM | HOP-62 > 100 µM | HT-29 > 100 µM | SK-MEL-28 > 100 µM | OVCAR-5 > 100 µM | HL-60 > 100 µM | A549 > 100 µM

CCCCN/N=N/c1cn(C2OC(CO)C(O)C2O)c(=O)[nH]c1=O (configuration not stated)
inactive: ACHN > 100 µM | SK-MEL-5 > 100 µM | SR > 100 µM | IGROV-1 > 100 µM | NCI-H460 > 100 µM | SK-MEL-2 > 100 µM | 786-0 > 100 µM | HCC 2998 > 100 µM | RXF 393 > 100 µM | SF-539 > 100 µM | HCT-116 > 100 µM | NCI-H522 > 100 µM | HOP-62 > 100 µM | HT-29 > 100 µM | SK-MEL-28 > 100 µM | OVCAR-5 > 100 µM | HL-60 > 100 µM | A549 > 100 µM
